{"source": "ChEMBL document CHEMBL1201862", "about": "“PubChem BioAssay data set” (2004)", "key": {"[1]": {"assay": "bead-based luminescence quenchers, dual-tagged ARNT – biochemical, AlphaScreen, cherry-pick, artefact control for ARNT-TACC3 interaction inhibitor project, dose response (AID 651705);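 note: AlphaScreen bead proximity signal that flags compounds interfering with the detection technology; potency reflects signal decrease which marks the compound as an assay artifact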", "format": "functional"}, "[2]": {"biological_target": "SUMO-activating enzyme (Homo sapiens, UniProt Q9UBT2)", "sequence (Q9UBE0 whole entry)": "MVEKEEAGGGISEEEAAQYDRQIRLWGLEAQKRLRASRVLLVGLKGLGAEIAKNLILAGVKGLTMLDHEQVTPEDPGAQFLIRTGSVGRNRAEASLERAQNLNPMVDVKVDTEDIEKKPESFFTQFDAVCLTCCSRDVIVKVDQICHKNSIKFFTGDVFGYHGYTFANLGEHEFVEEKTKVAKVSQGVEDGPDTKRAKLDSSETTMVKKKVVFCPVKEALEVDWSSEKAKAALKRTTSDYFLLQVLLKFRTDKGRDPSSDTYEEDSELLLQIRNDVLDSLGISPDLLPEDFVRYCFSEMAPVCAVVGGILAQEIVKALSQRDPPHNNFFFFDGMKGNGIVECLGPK", "sequence (Q9UBT2 whole entry)": "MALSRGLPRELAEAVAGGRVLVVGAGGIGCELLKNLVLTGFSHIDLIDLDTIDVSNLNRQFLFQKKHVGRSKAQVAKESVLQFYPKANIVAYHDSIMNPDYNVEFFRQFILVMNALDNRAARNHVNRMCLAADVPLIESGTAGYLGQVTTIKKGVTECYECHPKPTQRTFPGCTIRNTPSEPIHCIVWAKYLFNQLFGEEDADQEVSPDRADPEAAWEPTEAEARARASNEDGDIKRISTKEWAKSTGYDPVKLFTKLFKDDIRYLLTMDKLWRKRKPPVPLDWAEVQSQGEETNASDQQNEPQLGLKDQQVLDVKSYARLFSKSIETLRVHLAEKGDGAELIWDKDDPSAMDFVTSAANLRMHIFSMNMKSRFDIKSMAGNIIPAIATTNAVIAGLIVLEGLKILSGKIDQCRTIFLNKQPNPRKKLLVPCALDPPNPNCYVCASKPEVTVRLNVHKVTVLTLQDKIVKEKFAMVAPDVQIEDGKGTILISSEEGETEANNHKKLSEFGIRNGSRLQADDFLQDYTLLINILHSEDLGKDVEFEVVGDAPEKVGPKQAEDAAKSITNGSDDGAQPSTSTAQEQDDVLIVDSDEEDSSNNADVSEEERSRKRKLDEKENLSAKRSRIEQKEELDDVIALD", "assay": "blockers of UBC9-mediated SUMO conjugation – biochemical, AlphaScreen, SUMOylation inhibitor project, confirmation (AID 2018)", "format": "functional"}, "[3]": {"biological_target": "T1, Histone-lysine N-methyltransferase NSD2 (Homo sapiens, UniProt O96028)", "T1 sequence (O96028 whole entry)": "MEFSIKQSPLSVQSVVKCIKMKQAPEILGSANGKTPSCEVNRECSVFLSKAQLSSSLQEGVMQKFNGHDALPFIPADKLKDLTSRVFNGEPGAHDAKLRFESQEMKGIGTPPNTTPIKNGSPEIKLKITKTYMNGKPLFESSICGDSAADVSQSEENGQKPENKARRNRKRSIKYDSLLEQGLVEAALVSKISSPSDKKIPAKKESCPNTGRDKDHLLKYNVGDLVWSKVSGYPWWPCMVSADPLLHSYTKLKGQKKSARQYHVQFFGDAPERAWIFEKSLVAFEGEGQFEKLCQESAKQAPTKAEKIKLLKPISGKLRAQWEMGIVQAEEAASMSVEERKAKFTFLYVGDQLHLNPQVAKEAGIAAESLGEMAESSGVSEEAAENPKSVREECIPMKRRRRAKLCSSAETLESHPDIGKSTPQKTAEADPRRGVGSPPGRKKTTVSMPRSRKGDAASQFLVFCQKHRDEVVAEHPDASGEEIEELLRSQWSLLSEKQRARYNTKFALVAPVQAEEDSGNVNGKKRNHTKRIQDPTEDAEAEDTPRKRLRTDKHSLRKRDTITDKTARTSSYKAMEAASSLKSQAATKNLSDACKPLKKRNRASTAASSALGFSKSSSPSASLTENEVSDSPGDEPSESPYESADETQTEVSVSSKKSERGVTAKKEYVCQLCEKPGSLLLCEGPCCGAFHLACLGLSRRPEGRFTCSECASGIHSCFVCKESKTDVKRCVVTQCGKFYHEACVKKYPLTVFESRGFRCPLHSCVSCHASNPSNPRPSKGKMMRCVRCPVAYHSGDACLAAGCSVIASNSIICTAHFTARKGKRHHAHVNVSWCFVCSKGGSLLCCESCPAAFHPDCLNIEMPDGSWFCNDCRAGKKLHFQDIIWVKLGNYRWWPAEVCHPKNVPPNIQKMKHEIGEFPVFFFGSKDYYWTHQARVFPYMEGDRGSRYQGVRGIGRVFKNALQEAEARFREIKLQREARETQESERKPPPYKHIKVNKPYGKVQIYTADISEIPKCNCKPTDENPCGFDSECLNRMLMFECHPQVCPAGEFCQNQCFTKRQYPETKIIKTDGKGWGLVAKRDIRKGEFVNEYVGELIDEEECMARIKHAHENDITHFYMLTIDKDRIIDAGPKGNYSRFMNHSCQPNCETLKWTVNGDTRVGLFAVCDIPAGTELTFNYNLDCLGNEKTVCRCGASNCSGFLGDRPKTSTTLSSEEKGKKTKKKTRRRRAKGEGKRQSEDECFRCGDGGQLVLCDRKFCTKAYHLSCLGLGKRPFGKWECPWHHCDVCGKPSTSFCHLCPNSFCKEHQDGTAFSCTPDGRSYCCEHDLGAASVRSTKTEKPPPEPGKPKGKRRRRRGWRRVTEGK", "format": "biochemical"}, "[4]": {"biological_target": "T2, Replicative DNA helicase DnaB (Mycobacterium tuberculosis, UniProt P9WMR3)", "T2 sequence (P9WMR3 whole entry)": "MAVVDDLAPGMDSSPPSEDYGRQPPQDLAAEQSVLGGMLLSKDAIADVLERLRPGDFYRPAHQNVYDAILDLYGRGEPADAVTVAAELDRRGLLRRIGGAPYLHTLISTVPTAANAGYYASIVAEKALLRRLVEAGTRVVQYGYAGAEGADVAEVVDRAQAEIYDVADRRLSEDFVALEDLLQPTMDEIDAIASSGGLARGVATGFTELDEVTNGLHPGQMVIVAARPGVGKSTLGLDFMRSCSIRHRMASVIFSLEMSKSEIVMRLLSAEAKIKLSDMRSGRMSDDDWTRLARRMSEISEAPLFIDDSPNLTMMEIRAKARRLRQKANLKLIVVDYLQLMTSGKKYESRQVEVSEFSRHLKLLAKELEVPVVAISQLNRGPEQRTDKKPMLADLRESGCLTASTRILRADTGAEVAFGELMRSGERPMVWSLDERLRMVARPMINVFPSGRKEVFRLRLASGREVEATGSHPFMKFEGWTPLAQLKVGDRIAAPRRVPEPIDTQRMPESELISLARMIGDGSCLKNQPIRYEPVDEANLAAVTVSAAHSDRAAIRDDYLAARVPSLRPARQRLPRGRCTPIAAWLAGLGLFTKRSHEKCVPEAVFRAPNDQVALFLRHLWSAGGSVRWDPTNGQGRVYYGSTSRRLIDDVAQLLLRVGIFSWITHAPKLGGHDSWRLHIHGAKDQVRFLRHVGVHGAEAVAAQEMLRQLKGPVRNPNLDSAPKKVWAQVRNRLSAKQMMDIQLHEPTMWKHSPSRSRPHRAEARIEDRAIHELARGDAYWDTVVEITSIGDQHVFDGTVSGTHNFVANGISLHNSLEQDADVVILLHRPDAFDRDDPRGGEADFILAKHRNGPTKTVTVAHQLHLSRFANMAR", "assay": "DnaB intein splicing inhibitors, dose response, biochemical, cell-free fluorescence (AID 449749)", "format": "functional"}, "[5]": {"biological_target": "Heat shock protein HSP 90-alpha (Homo sapiens, UniProt P07900)", "format": "functional, organism-based"}, "[6]": {"tested_on": "HEK293", "assay": "cells", "format": "functional, cell-based", "conditions": "Homo sapiens"}, "[7]": {"biological_target": "Delta-type opioid receptor (Homo sapiens, UniProt P41143)", "sequence (P41143 whole entry)": "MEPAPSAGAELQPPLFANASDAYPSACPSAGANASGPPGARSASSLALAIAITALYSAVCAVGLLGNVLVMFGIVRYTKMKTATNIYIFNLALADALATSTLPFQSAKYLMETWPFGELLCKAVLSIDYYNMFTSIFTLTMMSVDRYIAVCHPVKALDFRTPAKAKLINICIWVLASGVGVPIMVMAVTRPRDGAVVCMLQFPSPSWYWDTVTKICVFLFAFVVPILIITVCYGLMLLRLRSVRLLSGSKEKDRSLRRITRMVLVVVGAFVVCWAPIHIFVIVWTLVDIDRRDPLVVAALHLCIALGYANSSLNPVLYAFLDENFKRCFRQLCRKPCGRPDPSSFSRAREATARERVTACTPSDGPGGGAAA", "assay": "Counterscreen for agonists of heterodimerization of the mu 1 (OPRM1) and delta 1 (OPRD1) opioid receptors: Luminescence-based cell-based high throughput dose response assay to identify agonists of OPRD1 homodimerization. [Related pubchem assays (depositor defined):AID504326, AID504355, AID504692, AID504904, AID504905]", "format": "functional"}, "[8]": {"biological_target": "T3, Caspase-3 (Homo sapiens, UniProt P42574)", "T3 sequence (P42574 whole entry)": "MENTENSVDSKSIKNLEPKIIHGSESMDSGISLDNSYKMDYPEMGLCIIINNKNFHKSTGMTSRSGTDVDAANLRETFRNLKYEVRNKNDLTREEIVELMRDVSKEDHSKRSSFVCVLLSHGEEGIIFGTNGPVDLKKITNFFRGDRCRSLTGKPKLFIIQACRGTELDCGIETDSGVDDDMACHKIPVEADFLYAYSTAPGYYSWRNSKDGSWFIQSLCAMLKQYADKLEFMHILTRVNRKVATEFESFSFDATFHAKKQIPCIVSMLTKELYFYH", "assay": "SAR Analysis of small molecule inhibitors of Sentrin-specific proteases (SENPs) using a Caspase-3 Selectivity assay. [Related pubchem assays (depositor defined):AID2540, AID2599, AID434973, AID489001]", "format": "functional"}}, "note": "Activity calls are given as the source filed them.", "data": [{"molecule": "COC(=O)c1cccc(-c2ccc(C(c3c(C)n[nH]c3O)c3c(C)n[nH]c3O)o2)c1", "values": [{"measurement": "AC50", "setting": "[1]", "result": "107 µM (active)"}, {"measurement": "IC50", "setting": "[2]", "result": "9.36 µM (active)"}, {"measurement": "AC50", "setting": "[3]", "result": "> 20 µM (inactive)"}, {"measurement": "AC50", "setting": "[4]", "result": "0.398 µM (active)"}]}, {"molecule": "Cc1cc(/C=C2\\SC(=S)N(C)C2=O)c(C)n1-c1ccc(O)cc1", "values": [{"measurement": "AC50", "setting": "[5]", "result": "8.02 µM (active)"}, {"measurement": "IC50", "setting": "[6]", "result": "> 20 µM (inactive)"}, {"measurement": "EC50", "setting": "[7]", "result": "15.1 µM (inactive)"}]}, {"molecule": "O=C1/C(=N\\c2cccc(O)c2)C(N2CCCCC2)=C(O)c2ccccc21", "values": [{"measurement": "AC50", "setting": "[3]", "result": "8.12 µM (active)"}, {"measurement": "AC50", "setting": "[4]", "result": "5.58 µM (active)"}]}, {"molecule": "Cc1ccc(C(=O)NNc2cc(N3CCCC3)nc(N3CCCC3)n2)cc1", "values": [{"measurement": "IC50", "setting": "[8]", "result": "> 99 µM (inactive)"}]}]}
